Where two headings read alike, the source gives them in different places.
Tests used:
[1] = molecular target: ERBB2 (HER2) (Homo sapiens, UniProt P04626); assay: SelectScreen kinase profiling; format: biochemical; conditions: average of duplicate
[2] = molecular target: FRK (PTK5) (Homo sapiens, UniProt P42685); assay: SelectScreen kinase profiling; format: biochemical; conditions: average of duplicate
[3] = molecular target: KIT V559D (Homo sapiens, UniProt P10721, V559D); assay: SelectScreen kinase profiling; format: biochemical; conditions: average of duplicate
Chain of KIT V559D (P10721 26-976 V559D): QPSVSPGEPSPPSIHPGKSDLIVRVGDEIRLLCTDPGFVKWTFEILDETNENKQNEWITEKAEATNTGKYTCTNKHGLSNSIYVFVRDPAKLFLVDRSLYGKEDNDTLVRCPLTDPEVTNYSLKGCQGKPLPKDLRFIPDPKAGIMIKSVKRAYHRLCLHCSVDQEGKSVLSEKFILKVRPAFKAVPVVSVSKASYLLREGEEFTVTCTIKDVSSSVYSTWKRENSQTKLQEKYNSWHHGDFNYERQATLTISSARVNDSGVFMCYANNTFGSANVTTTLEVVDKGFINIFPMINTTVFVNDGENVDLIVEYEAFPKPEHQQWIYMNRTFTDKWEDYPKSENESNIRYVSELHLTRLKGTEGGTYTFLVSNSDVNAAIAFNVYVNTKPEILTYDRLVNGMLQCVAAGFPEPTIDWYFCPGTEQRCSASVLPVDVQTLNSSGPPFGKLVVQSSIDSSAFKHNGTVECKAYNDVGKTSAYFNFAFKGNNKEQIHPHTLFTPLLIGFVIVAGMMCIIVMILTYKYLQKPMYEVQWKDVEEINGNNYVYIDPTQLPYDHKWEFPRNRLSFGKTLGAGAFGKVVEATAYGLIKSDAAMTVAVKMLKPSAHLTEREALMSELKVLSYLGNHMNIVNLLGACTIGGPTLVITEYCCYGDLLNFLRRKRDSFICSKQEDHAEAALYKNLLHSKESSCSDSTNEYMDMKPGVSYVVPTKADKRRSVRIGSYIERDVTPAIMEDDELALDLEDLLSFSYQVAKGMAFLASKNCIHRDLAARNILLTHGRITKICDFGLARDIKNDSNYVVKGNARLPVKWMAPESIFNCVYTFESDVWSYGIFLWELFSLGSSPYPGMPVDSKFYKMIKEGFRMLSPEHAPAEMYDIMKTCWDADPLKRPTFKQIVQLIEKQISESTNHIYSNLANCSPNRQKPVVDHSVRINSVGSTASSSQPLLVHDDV

[4] = molecular target: KIT (Homo sapiens, UniProt P10721); assay: SelectScreen kinase profiling; format: biochemical; conditions: average of duplicate
Chain of KIT (P10721 26-976): as the sequence (P10721 26-976 V559D) above, with D534V counted along it

[5] = molecular target: LYN A (Homo sapiens, UniProt P07948); assay: SelectScreen kinase profiling; format: biochemical; conditions: average of duplicate
[6] = molecular target: PDGFRA (PDGFR alpha) (Homo sapiens, UniProt P16234); assay: SelectScreen kinase profiling; format: biochemical; conditions: average of duplicate
Chain of PDGFRA (PDGFR alpha) (P16234 24-1089): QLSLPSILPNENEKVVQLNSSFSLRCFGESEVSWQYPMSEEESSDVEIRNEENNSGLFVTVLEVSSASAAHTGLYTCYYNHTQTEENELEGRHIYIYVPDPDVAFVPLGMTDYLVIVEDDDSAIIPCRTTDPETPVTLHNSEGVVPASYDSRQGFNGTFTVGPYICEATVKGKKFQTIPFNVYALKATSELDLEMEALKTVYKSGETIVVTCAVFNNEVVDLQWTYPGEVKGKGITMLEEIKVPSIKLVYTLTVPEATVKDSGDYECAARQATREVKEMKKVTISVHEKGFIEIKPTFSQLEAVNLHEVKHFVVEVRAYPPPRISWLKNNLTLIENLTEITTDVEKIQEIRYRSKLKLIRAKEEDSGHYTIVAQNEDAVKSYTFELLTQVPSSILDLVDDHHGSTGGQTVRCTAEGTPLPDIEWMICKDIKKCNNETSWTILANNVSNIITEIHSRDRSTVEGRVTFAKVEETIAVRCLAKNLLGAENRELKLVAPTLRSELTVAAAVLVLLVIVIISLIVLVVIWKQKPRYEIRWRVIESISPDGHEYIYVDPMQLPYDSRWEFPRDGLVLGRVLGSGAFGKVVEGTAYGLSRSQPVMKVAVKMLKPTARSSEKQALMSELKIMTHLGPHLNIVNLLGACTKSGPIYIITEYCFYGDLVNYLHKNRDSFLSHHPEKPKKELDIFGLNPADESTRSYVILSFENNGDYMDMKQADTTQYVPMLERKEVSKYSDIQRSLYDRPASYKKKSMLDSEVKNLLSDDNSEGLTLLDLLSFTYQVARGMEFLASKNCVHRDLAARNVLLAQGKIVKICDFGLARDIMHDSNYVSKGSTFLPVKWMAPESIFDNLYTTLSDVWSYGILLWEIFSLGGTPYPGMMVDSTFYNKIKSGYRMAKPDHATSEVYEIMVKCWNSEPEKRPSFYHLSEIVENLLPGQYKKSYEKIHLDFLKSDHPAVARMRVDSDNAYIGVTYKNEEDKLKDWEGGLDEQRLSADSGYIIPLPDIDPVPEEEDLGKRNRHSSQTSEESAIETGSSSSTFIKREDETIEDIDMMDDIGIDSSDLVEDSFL

[7] = molecular target: PDGFRB (PDGFR beta) (Homo sapiens, UniProt P09619); assay: SelectScreen kinase profiling; format: biochemical; conditions: average of duplicate
[8] = molecular target: PTK6 (Brk) (Homo sapiens, UniProt Q13882); assay: SelectScreen kinase profiling; format: biochemical; conditions: average of duplicate
[9] = molecular target: TXK (Homo sapiens, UniProt P42681); assay: SelectScreen kinase profiling; format: biochemical; conditions: average of duplicate
[10] = molecular target: ERN1 (Homo sapiens, UniProt O75460); assay: SelectScreen kinase profiling; format: biochemical; conditions: average of duplicate
[11] = molecular target: MAP2K1 (MEK1) S218D S222D (Homo sapiens, UniProt Q02750, S218D/S222D); assay: SelectScreen kinase profiling; format: biochemical; conditions: average of duplicate
Chain of MAP2K1 (MEK1) S218D S222D (Q02750 whole entry S218D/S222D): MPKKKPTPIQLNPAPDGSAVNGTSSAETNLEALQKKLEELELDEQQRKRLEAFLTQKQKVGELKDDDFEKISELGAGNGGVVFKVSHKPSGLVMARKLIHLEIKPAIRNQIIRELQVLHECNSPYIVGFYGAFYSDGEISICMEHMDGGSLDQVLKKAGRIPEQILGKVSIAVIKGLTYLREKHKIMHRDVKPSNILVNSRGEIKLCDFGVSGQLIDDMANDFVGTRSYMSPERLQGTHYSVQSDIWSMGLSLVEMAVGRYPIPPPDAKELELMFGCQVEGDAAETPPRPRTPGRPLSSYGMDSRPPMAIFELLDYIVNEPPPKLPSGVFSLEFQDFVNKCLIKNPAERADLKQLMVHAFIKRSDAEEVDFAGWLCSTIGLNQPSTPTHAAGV

[12] = molecular target: MAP2K5 (MEK5) (Homo sapiens, UniProt Q13163); assay: SelectScreen kinase profiling; format: biochemical; conditions: average of duplicate
Chain of MAP2K5 (MEK5) (Q13163 whole entry): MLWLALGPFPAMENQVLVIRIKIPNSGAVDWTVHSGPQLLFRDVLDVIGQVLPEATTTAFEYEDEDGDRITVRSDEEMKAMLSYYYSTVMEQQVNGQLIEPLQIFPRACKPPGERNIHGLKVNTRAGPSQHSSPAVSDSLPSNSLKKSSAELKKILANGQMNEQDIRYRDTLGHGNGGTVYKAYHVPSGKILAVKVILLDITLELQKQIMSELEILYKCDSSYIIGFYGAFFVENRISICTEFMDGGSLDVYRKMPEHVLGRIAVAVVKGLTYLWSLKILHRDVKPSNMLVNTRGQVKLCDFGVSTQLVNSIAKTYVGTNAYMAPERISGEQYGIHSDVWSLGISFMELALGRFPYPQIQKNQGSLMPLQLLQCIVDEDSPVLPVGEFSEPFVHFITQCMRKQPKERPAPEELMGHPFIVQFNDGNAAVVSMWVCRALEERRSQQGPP

[13] = molecular target: RIPK2 (Homo sapiens, UniProt O43353); assay: SelectScreen kinase profiling; format: biochemical; conditions: average of duplicate
[14] = molecular target: TEC (Homo sapiens, UniProt P42680); assay: SelectScreen kinase profiling; format: biochemical; conditions: average of duplicate
[15] = molecular target: TTK (Homo sapiens, UniProt P33981); assay: SelectScreen kinase profiling; format: biochemical; conditions: average of duplicate
[16] = molecular target: BTK (Homo sapiens, UniProt Q06187); assay: Western blot, phosphorylation of BTK in Jeko-1 cells; format: cell-based; conditions: 2 h
Chain of BTK (Q06187 whole entry): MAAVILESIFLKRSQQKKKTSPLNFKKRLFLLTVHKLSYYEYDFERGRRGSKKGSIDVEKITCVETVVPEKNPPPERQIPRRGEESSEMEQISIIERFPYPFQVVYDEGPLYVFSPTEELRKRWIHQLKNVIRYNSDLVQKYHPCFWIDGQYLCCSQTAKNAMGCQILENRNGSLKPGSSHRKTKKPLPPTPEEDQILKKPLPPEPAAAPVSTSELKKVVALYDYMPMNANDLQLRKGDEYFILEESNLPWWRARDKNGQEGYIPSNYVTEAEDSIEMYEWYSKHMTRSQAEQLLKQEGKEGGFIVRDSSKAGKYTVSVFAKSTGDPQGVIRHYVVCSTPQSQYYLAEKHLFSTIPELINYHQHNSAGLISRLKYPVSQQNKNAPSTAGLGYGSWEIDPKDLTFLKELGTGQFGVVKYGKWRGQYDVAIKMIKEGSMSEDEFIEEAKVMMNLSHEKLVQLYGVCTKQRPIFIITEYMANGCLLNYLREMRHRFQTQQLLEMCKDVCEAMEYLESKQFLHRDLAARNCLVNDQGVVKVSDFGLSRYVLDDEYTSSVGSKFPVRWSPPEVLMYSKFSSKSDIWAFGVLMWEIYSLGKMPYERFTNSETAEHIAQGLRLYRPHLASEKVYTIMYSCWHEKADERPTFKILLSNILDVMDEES

[17] = molecular target: JAK3 (Homo sapiens, UniProt P52333); assay: SelectScreen kinase profiling / Z′-Lyte kinase assay; conditions: for JAK3, BTK/Kinase: BTK selectivity from IC50 values; for Hillslope: JAK3 IC50 curve
Chain of JAK3 (P52333 781-1124 limits assumed): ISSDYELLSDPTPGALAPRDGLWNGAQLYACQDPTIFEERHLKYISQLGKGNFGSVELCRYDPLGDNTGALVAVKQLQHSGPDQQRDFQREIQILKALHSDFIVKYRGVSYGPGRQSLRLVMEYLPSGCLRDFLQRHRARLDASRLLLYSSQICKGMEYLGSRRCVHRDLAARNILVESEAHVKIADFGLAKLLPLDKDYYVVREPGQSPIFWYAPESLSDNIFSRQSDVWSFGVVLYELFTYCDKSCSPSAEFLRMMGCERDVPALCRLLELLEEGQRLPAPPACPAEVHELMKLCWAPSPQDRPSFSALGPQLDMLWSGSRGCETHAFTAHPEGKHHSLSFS

[18] = molecular target: BLK (Homo sapiens, UniProt P51451); assay: AssayQuant kinact/Ki profiling, PhosphoSens CSox-based kinetic assay; format: biochemical; set-up: purchased ThermoFisher / Life Technologies SelectScreen PV3683; conditions: for kinact/KI / BLK kinact/Ki: 2.5 nM enzyme, 1000 µM ATP, two step fit; for kinact: fitted value, two step
Chain of BLK (P51451 whole entry): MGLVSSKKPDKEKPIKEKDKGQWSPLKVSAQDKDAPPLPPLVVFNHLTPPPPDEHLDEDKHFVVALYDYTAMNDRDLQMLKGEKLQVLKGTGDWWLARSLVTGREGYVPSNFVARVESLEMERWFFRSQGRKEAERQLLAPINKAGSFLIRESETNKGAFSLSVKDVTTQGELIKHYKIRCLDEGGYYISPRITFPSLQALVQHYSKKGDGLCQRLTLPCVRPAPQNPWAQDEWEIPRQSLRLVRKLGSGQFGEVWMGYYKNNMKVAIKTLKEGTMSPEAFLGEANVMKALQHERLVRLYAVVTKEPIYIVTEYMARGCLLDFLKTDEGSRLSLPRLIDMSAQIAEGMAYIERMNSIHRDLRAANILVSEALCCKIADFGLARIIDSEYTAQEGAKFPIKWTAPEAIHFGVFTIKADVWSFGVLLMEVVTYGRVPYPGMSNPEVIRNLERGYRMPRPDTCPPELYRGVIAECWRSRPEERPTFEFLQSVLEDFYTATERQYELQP

[19] = molecular target: HCK (Homo sapiens, UniProt P08631); assay: as above; conditions: for kinact: read-out: HCK kinact; for kinact/KI: read-out: HCK kinact/KI
Chain of HCK (P08631 whole entry): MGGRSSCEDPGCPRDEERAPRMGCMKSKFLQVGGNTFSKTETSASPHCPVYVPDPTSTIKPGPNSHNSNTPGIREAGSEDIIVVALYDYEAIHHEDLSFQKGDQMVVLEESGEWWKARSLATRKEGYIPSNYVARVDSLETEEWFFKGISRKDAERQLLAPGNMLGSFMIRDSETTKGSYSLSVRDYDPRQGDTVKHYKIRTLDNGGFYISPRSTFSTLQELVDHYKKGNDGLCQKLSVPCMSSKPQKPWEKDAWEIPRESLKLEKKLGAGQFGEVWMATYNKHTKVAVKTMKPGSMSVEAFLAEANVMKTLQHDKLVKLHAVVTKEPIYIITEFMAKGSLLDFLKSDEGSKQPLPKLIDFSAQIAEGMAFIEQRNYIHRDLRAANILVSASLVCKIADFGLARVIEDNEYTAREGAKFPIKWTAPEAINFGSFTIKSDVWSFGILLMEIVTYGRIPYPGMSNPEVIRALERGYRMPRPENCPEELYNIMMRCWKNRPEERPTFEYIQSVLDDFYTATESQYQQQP

[20] = molecular target: T1, ITK (Homo sapiens, UniProt Q08881); assay: as above; conditions: for kinact: read-out: ITK kinact; for kinact/KI: read-out: ITK kinact/KI
T1 sequence (Q08881 1-620): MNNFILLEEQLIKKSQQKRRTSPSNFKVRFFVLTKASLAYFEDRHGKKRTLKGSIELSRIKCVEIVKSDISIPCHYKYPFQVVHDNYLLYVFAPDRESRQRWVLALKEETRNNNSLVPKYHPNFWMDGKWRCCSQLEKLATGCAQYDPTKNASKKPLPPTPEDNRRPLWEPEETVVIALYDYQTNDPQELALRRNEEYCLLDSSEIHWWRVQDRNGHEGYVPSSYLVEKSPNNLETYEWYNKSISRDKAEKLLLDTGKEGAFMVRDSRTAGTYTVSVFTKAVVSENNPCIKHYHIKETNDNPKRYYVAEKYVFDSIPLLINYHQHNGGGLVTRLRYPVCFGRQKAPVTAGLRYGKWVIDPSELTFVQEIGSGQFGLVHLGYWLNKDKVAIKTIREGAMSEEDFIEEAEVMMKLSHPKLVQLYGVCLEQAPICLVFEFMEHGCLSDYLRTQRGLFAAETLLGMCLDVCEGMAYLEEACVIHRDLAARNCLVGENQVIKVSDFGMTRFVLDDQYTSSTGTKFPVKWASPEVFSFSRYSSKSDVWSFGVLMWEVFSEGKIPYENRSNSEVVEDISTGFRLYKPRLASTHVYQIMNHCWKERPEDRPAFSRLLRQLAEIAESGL

An inhibition at 1 µM [1] of 2%, an inhibition at 1 µM [2] of 9% and an inhibition at 1 µM [3] of 1% were found for C=CC(=O)N1CCCC(n2nc(-c3c(C)cc(Oc4ccccc4)cc3C)c3c(N)ncnc32)C1 (stereo in doubt) [Compound 3] in this work. For the same compound, the inhibition at 1 µM [4] was 1%, the inhibition at 1 µM [5] was 13% and the inhibition at 1 µM [6] was 3%. For the same compound, the inhibition at 1 µM [7] was 0%, the inhibition at 1 µM [8] was 69% and the inhibition at 1 µM [9] was 94%. For the same compound, the inhibition at 1 µM [10] was 2%, the inhibition at 1 µM [11] was 4% and the inhibition at 1 µM [12] was 10%. The inhibition at 1 µM [13] was 29%, the inhibition at 1 µM [14] was 91% and the inhibition at 1 µM [15] was -7%. The “pBTK/BTK ratio normalized to the DMSO control” value (“pBTK/BTK ratio normalized” for short) ([16]; 1 uM) was 0.37, the “pBTK/BTK ratio normalized” value ([16]; 10 uM) was 0.31 and the “pBTK/BTK ratio normalized” value ([16]; .01 uM) was 0.47. The “pBTK/BTK ratio normalized” value ([16]; .1 uM) was 0.36, the IC50 [17] was > 10000 nM and the inhibition at 1 µM [17] was -7%. For the same compound, the “JAK3, BTK/Kinase” value [17] was > 781 x, the Hillslope [17] was 0.86 and the “JAK3 IC50” value ([17]; Z′-Lyte, [ATP] Km app, 1 h incubation, duplicate) was “no observable activities”. For the same compound, the inhibition at 0.000495 µM ([17]; read-out: % Inhibition Point 1) was 4%, the inhibition at 0.00152 µM ([17]; read-out: % Inhibition Point 1) was -1% and the inhibition at 0.00457 µM ([17]; read-out: % Inhibition Point 1) was 2%. The inhibition at 0.0137 µM ([17]; read-out: % Inhibition Point 1) was 1%, the inhibition at 0.0412 µM ([17]; read-out: % Inhibition Point 1) was 1% and the inhibition at 0.123 µM ([17]; read-out: % Inhibition Point 1) was 2%. It also gave an inhibition at 0.37 µM ([17]; read-out: % Inhibition Point 1) of 3%, an inhibition at 1.11 µM ([17]; read-out: % Inhibition Point 1) of 6% and an inhibition at 3.33 µM ([17]; read-out: % Inhibition Point 1) of 17%. It also gave an inhibition at 10 µM ([17]; read-out: % Inhibition Point 1) of 32%, an inhibition at 0.000495 µM ([17]; read-out: % Inhibition Point 2) of 1% and an inhibition at 0.00152 µM ([17]; read-out: % Inhibition Point 2) of -1%. The inhibition at 0.00457 µM ([17]; read-out: % Inhibition Point 2) was -1%, the inhibition at 0.0137 µM ([17]; read-out: % Inhibition Point 2) was 1% and the inhibition at 0.0412 µM ([17]; read-out: % Inhibition Point 2) was 3%. The inhibition at 0.123 µM ([17]; read-out: % Inhibition Point 2) was 4%, the inhibition at 0.37 µM ([17]; read-out: % Inhibition Point 2) was 0% and the inhibition at 1.11 µM ([17]; read-out: % Inhibition Point 2) was 11%. For the same compound, the inhibition at 3.33 µM ([17]; read-out: % Inhibition Point 2) was 14%, the inhibition at 10 µM ([17]; read-out: % Inhibition Point 2) was 32% and the kinact/KI [18] was 35000 M⁻¹ s⁻¹. The “BLK kinact/Ki” value ([18]; listed as Dimethyl Analog) was 35,500 M^-1S^-1, the kinact [18] was 0.0021 s⁻¹ and the kinact [19] was 0.0001 s⁻¹. It also gave a kinact/KI [19] of 5960 M⁻¹ s⁻¹, a kinact [20] of 0.0005 s⁻¹ and a kinact/KI [20] of 2800 M⁻¹ s⁻¹.
An inhibition at 1 µM [1] of 71%, an inhibition at 1 µM [2] of 71% and an inhibition at 1 µM [3] of 14% were found for C=CC(=O)N1CCC[C@@H](n2nc(-c3ccc(Oc4ccccc4)cc3C)c3c(N)ncnc32)C1 [Compound 2, (R)-1-(3-(4-amino-3-(2-methyl-4-phenoxyphenyl)-1H-pyrazolo[3,4-d]pyrimidin-1-yl)piperidin-1-yl)prop-2-en-1-one] in this work. For the same compound, the inhibition at 1 µM [4] was 15%, the inhibition at 1 µM [5] was 85% and the inhibition at 1 µM [6] was 16%. The inhibition at 1 µM [7] was 6%, the inhibition at 1 µM [8] was 97% and the inhibition at 1 µM [9] was 99%. It also gave an inhibition at 1 µM [10] of 2%, an inhibition at 1 µM [11] of 12% and an inhibition at 1 µM [12] of 32%. For the same compound, the inhibition at 1 µM [13] was 95%, the inhibition at 1 µM [14] was 100% and the inhibition at 1 µM [15] was 2%. The “pBTK/BTK ratio normalized” value ([16]; 1 uM) was 0.54, the “pBTK/BTK ratio normalized” value ([16]; 10 uM) was 0.21 and the “pBTK/BTK ratio normalized” value ([16]; .01 uM) was 0.26. For the same compound, the “pBTK/BTK ratio normalized” value ([16]; .1 uM) was 0.39, the IC50 [17] was 874 nM and the inhibition at 1 µM [17] was 65%. For the same compound, the “JAK3, BTK/Kinase” value [17] was 934 x, the Hillslope [17] was 1.09 and the inhibition at 0.000495 µM ([17]; read-out: % Inhibition Point 1) was -1%. For the same compound, the inhibition at 0.00152 µM ([17]; read-out: % Inhibition Point 1) was -7%, the inhibition at 0.00457 µM ([17]; read-out: % Inhibition Point 1) was 2% and the inhibition at 0.0137 µM ([17]; read-out: % Inhibition Point 1) was -5%. It also gave an inhibition at 0.0412 µM ([17]; read-out: % Inhibition Point 1) of 6%, an inhibition at 0.123 µM ([17]; read-out: % Inhibition Point 1) of 9% and an inhibition at 0.37 µM ([17]; read-out: % Inhibition Point 1) of 28%. It also gave an inhibition at 1.11 µM ([17]; read-out: % Inhibition Point 1) of 55%, an inhibition at 3.33 µM ([17]; read-out: % Inhibition Point 1) of 89% and an inhibition at 10 µM ([17]; read-out: % Inhibition Point 1) of 98%. For the same compound, the inhibition at 0.000495 µM ([17]; read-out: % Inhibition Point 2) was -4%, the inhibition at 0.00152 µM ([17]; read-out: % Inhibition Point 2) was -5% and the inhibition at 0.00457 µM ([17]; read-out: % Inhibition Point 2) was 0%. It also gave an inhibition at 0.0137 µM ([17]; read-out: % Inhibition Point 2) of -3%, an inhibition at 0.0412 µM ([17]; read-out: % Inhibition Point 2) of -2% and an inhibition at 0.123 µM ([17]; read-out: % Inhibition Point 2) of 10%. The inhibition at 0.37 µM ([17]; read-out: % Inhibition Point 2) was 27%, the inhibition at 1.11 µM ([17]; read-out: % Inhibition Point 2) was 56% and the inhibition at 3.33 µM ([17]; read-out: % Inhibition Point 2) was 85%. For the same compound, the inhibition at 10 µM ([17]; read-out: % Inhibition Point 2) was 93%, the kinact/KI [18] was 320000 M⁻¹ s⁻¹ and the “BLK kinact/Ki” value ([18]; listed as Monomethyl Analog) was 316,000 M^-1S^-1. For the same compound, the kinact [18] was 0.0034 s⁻¹, the kinact [19] was 0.0009 s⁻¹ and the kinact/KI [19] was 1730 M⁻¹ s⁻¹. For the same compound, the kinact [20] was 0.0001 s⁻¹ and the kinact/KI [20] was 4120 M⁻¹ s⁻¹.

— PMC10009787 (ACS Medicinal Chemistry Letters, 2023)
